SMILES strings stand for the structures.

Sequence of MAPKAP-K2 (P49137 whole entry): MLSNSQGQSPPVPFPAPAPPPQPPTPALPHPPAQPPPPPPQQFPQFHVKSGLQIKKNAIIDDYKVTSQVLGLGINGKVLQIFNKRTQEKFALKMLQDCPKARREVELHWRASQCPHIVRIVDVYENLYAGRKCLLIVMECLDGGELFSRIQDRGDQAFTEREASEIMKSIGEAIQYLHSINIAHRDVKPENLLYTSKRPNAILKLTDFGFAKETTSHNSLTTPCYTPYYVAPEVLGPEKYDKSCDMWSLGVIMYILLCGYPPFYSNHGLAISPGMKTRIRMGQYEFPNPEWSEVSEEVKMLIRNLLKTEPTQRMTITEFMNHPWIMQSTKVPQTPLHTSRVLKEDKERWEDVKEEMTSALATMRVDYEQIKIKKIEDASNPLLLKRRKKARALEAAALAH

The assay concerns the target MAPKAP-K2 (Homo sapiens, UniProt P49137). The assay is described as follows: MAPKAP-Kinase 2 Assay (33P-ATP peptide phosphorylation, filter plate). In kind it is biochemical. Details: key: +: active; ++: more active; +++: very active. Conditions: assays conducted at typically 1-100 μM. On the procedure:
MAPKAP-Kinase 2 Assay [Compound Preparation]
Compounds are dissolved in DMSO at a concentration of 3 mM and stored in aliquots at −20° C. Compounds in DMSO from these stock aliquots are diluted in 30% DMSO to produce initial working stock solutions of 1 mM and 3 mM. Both of these stock solutions are then subjected to 1:10 serial dilutions in 30% DMSO in order to prepare 3000, 1000, 300, 100, 30, 10, 3, 1, 0.1, 0.01 μM stock solutions. 5 μl of each stock solution is used per 50 μl reaction to give final assay concentrations of 300, 100, 30, 10, 3, 1, 0.3, 0.1, 0.01, 0.001 μM.
The kinase reaction is conducted in a round-bottomed polypropylene 96-well plate. MAPKAP-K2 is diluted to 25 mU/μl in diluent buffer (50 mM Tris/HCl. pH7.5, 0.1 mM EGTA, 0.1% (v/v) β-mercaptoethanol, 1 mg/ml BSA). 5 μl compound or 30% DMSO is added to each well followed by 25 μl substrate cocktail (10 μM ATP, 30 μM peptide (KKLNRTLSVA), 0.5 μCi ^33P-γ-ATP in 50 mM Tris pH7.5, 0.1 mM EGTA, 10 mM Mg-acetate, 0.1% BME). The reaction is initiated with the addition of 20 μl enzyme solution per well or 20 μl diluent buffer without enzyme. The plate is shaken for 10 sec and then left at room temperature for 30 min. The reaction is terminated with 50 μl 150 mM phosphoric acid. 90 μl of the reaction mixture is then transferred into a 96-well P81 filter plate (Millipore) and incubated at room temperature for 5 min. The filter plate is then washed 4 times with 200 μl 75 mM phosphoric acid per well on a plate vacuum manifold (Millipore) and dried in an oven for 2-3 h. Packard MicroScint ‘0’ (30 μl) is then added to each well, the plate is mixed for 30 min and subjected to liquid scintillation counting on a Packard TopCount.
[Interpretation] %Control=(X−B)/(Tot−B)×100 %Inhibition=100−% Control X=cpm of the test compound wells B=cpm of wells without enzyme Tot=cpm of wells with DMSO vehicle only
Take `N[C@H]1CC[C@H](Nc2cc(Nc3ccc(F)c(Cl)c3)n3nccc3n2)CC1` [Compound 2]: the MAPKAP-K2 activity result was “+++”.

As to `Fc1ccc(Nc2cc(NC3CCNCC3)nc3ccnn23)cc1Cl` [Compound 88], the MAPKAP-K2 activity entry is “++”.

`Fc1ccc(Nc2cc(NC3CCC(NCC4CCOC4)CC3)nc3ccnn23)cc1Cl` (stereo not drawn) [Compound 127]: the MAPKAP-K2 activity entry was “++”.

As to `Fc1ccccc1Nc1cc(NC2CCCNC2)nc2ccnn12` (stereo not drawn) [Compound 141], the MAPKAP-K2 activity entry is “+++”.

In the case of `COc1ccc(Nc2cc(N[C@H]3CC[C@H](N)CC3)nc3ccnn23)cc1` [Compound 17], the MAPKAP-K2 activity entry is recorded as “+++”.

For `C#CC(C)(C)Nc1cc(NC2CCC(N)CC2)nc2ccnn12` (stereo not drawn) [Compound 111], the MAPKAP-K2 activity entry was “++”.

As for `Cc1ccc(C)c(Nc2cc(N[C@H]3CC[C@H](N)CC3)nc3ccnn23)c1` [Compound 75], the MAPKAP-K2 activity entry was “+++”.

For the compound `NC1CCC(Nc2cc(Nc3c(F)cccc3F)n3nccc3n2)CC1` (stereo not drawn) [Compound 109], the MAPKAP-K2 activity result was “+++”.

For the compound `N[C@H]1CC[C@H](Nc2cc(Nc3ccccc3)n3nccc3n2)CC1` [Compound 10], the MAPKAP-K2 activity result is “+++”.

Turning to `N[C@H]1CC[C@H](Nc2cc(Nc3c(Cl)cccc3Cl)n3nccc3n2)CC1` [Compound 69], the MAPKAP-K2 activity result is recorded as “+++”.

Take `NCCCNc1cc(Nc2ccc(F)c(Cl)c2)n2nccc2n1` [Compound 94]: the MAPKAP-K2 activity result is listed as “+”.

Take `N[C@H]1CC[C@H](Nc2cc(NCc3ccc(Cl)cc3)n3nccc3n2)CC1` [Compound 14]: the MAPKAP-K2 activity entry is given as “++”.

For the origin of these results see patent publication US20060205743A1, “Protein kinase inhibitors” (priority 2003, published 2006).
